Source: patent publication US12540120B2, “Herbicidal compounds” (SYNGENTA CROP PROTECTION AG, priority 2019, dated 2026)

Columns and labels:
Type in all cases: in vivo
[1] = tested on: Amaranthus retoflexus (AMARE); assay: B5 Pre-Emergence Efficacy—Test 2; conditions: 250 g/ha, evaluated after 13 days
Experimental: (§1) B5 Pre-Emergence Efficacy—Test 2 Seeds of a variety of test species were sown in standard soil in pots: Solanum nigrum (SOLNI), Amaranthus retoflexus (AMARE), Setaria faberi (SETFA), Echinochloa crus-galli (ECHCG), Ipomoea hederacea (IPOHE), Lolium perenne (LOLPE). After cultivation for one day (pre-emergence) under controlled conditions in a glasshouse (at 24/16° C., day/night; 14 hours light; 65% humidity), the plants were sprayed with an aqueous spray solution derived from the formulation of the technical active ingredient in acetone/water (50:50) solution containing 0.5% Tween 20 (polyoxyethelyene sorbitan monolaurate, CAS RN 9005-64-5). Compounds are applied at 250 g/ha. The test plants were then grown in a glasshouse under controlled conditions (at 24/16° C., day/night; 14 hours light; 65% humidity) and watered twice daily. After 13 days, the test is evaluated for the percentage damage caused to the plant. The biological activities are assessed on a five point scale (5=80-100%; 4=60-79%; 3=40-59%; 2=20-39%; 1=0-19%). A blank value in the table is indicative that the compound was not tested on that species.

[2] = tested on: Solanum nigrum (SOLNI); assay: B5 Pre-Emergence Efficacy—Test 2; conditions: 250 g/ha, evaluated after 13 days
Experimental: as §1

[3] = tested on: Ipomoea hederacea (IPOHE); assay: B5 Pre-Emergence Efficacy—Test 2; set-up: key: 5-point scale: 5=80-100%, 4=60-79%, 3=40-59%, 2=20-39%, 1=0-19% damage; conditions: 250 g/ha, evaluated after 13 days
Experimental: as §1

[4] = tested on: Setaria faberi (SETFA); assay: B5 Pre-Emergence Efficacy—Test 2; set-up: key: 5-point scale: 5=80-100%, 4=60-79%, 3=40-59%, 2=20-39%, 1=0-19% damage; conditions: 250 g/ha, evaluated after 13 days
Experimental: as §1

[5] = tested on: Echinochloa crus-galli (ECHCG); assay: B5 Pre-Emergence Efficacy—Test 2; set-up: key: 5-point scale: 5=80-100%, 4=60-79%, 3=40-59%, 2=20-39%, 1=0-19% damage; conditions: 250 g/ha, evaluated after 13 days
Experimental: as §1

[6] = tested on: Lolium perenne (LOLPE); assay: B5 Pre-Emergence Efficacy—Test 2; set-up: key: 5-point scale: 5=80-100%, 4=60-79%, 3=40-59%, 2=20-39%, 1=0-19% damage; conditions: 250 g/ha, evaluated after 13 days
Experimental: as §1

[7] = tested on: Amaranthus retoflexus (AMARE); assay: B2 Post-Emergence Efficacy—Test 2; conditions: post-emergence application, 250 g/ha, evaluated after 13 days (Test 2)
Experimental: (§2) B2 Post-Emergence Efficacy—Test 2 Seeds of a variety of test species are sown in standard soil in pots:—Solanum nigrum (SOLNI), Amaranthus retoflexus (AMARE), Setaria faberi (SETFA), Echinochloa crus-galli (ECHCG), Ipomoea hederacea (IPOHE), Lolium perenne (LOLPE). After 8 days cultivation (post-emergence) under controlled conditions in a glasshouse (at 24/16° C., day/night; 14 hours light; 65% humidity), the plants are sprayed with an aqueous spray solution derived from the formulation of the technical active ingredient in acetone/water (50:50) solution containing 0.5% Tween 20 (polyoxyethylene sorbitan monolaurate, CAS RN 9005-64-5). Compounds are applied at 250 g/ha. The test plants are then grown in a glasshouse under controlled conditions in a glasshouse (at 24/16° C., day/night; 14 hours light; 65% humidity) and watered twice daily. After 13 days, the test is evaluated for the percentage damage caused to the plant. The biological activities are assessed on a five point scale (5=80-100%; 4=60-79%; 3=40-59%; 2=20-39%; 1=0-19%). A blank value in the table is indicative that the compound was not tested on that species.

[8] = tested on: Ipomoea hederacea (IPOHE); assay: B2 Post-Emergence Efficacy—Test 2; conditions: post-emergence application, 250 g/ha, evaluated after 13 days (Test 2)
Experimental: as §2

[9] = tested on: Solanum nigrum (SOLNI); assay: B2 Post-Emergence Efficacy—Test 2; conditions: post-emergence application, 250 g/ha, evaluated after 13 days (Test 2)
Experimental: as §2

[10] = tested on: Setaria faberi (SETFA); assay: B2 Post-Emergence Efficacy—Test 2; conditions: post-emergence application, 250 g/ha, evaluated after 13 days (Test 2)
Experimental: as §2

[11] = tested on: Echinochloa crus-galli (ECHCG); assay: B2 Post-Emergence Efficacy—Test 2; conditions: post-emergence application, 250 g/ha, evaluated after 13 days (Test 2)
Experimental: as §2

[12] = tested on: Lolium perenne (LOLPE); assay: B2 Post-Emergence Efficacy—Test 2; conditions: post-emergence application, 250 g/ha, evaluated after 13 days (Test 2)
Experimental: as §2

| SMILES | Control of weed species after pre-emergence application, AMARE (percentage damage, five point scale) [1] | Control of weed species after pre-emergence application, SOLNI (percentage damage, five point scale) [2] | Control of weed species after pre-emergence application, IPOHE (percentage damage, five point scale) [3] | Control of weed species after pre-emergence application, SETFA (percentage damage, five point scale) [4] | Control of weed species after pre-emergence application, ECHCG (percentage damage, five point scale) [5] | Control of weed species after pre-emergence application, LOLPE (percentage damage, five point scale) [6] | percentage damage caused to the plant, five point scale, AMARE [7] | percentage damage caused to the plant, five point scale, IPOHE [8] | percentage damage caused to the plant, five point scale, SOLNI [9] | percentage damage caused to the plant, five point scale, SETFA [10] | percentage damage caused to the plant, five point scale, ECHCG [11] | percentage damage caused to the plant, five point scale, LOLPE [12] |
| --- | --- | --- | --- | --- | --- | --- | --- | --- | --- | --- | --- | --- |
| Cc1nn(C)c(=O)c(-c2c(F)ccc(Cl)c2CCc2cccc(C#N)c2)c1O [Compound A-1.030] | 5 (5=80-100%) | 5 (5=80-100%) | 0 | 5 (5=80-100%) | 5 (5=80-100%) | 4 (4=60-79%) | 4 (4=60-79%) | 5 (5=80-100%) | 5 (5=80-100%) | 4 (4=60-79%) | 4 (4=60-79%) | 5 (5=80-100%) |
| CNc1ccc(CCc2c(Cl)ccc(F)c2-c2c(O)c(C)nn(C)c2=O)cc1 [Compound A-1.034] | 0 | 2 (2=20-39%) | 0 | 0 | 0 | 0 | 5 (5=80-100%) | 5 (5=80-100%) | 5 (5=80-100%) | 5 (5=80-100%) | 1 (1=0-19%) | 5 (5=80-100%) |
| Cc1nn(C)c(=O)c(-c2c(F)ccc(Cl)c2CCc2ccc(OC(C)(C)C)cc2)c1O [Compound A-1.035] | 4 (4=60-79%) | 3 (3=40-59%) | 1 (1=0-19%) | 3 (3=40-59%) | 1 (1=0-19%) | 3 (3=40-59%) | 4 (4=60-79%) | 4 (4=60-79%) | 5 (5=80-100%) | 4 (4=60-79%) | 4 (4=60-79%) | 4 (4=60-79%) |
| Cc1nn(C)c(=O)c(-c2c(F)ccc(Cl)c2CCc2cccc(C#N)c2)c1OC(=O)C(C)C [Compound A-3.030] | 5 (5=80-100%) | 5 (5=80-100%) | 3 (3=40-59%) | 5 (5=80-100%) | 4 (4=60-79%) | 4 (4=60-79%) | 5 (5=80-100%) | 5 (5=80-100%) | 5 (5=80-100%) | 5 (5=80-100%) | 2 (2=20-39%) | 4 (4=60-79%) |
| Cc1nn(C)c(=O)c(-c2c(F)ccc(Cl)c2CCc2ccc(-c3cccs3)cc2)c1O [Compound A-1.384] | 2 (2=20-39%) | 1 (1=0-19%) | 2 (2=20-39%) | 0 | 0 | 0 | 5 (5=80-100%) | 5 (5=80-100%) | 5 (5=80-100%) | 5 (5=80-100%) | 3 (3=40-59%) | 4 (4=60-79%) |
| Cc1nn(C)c(=O)c(-c2c(F)ccc(Cl)c2CCc2ccc(C3CC3)cc2)c1OC(=O)C(C)C [Compound A-3.038] | 5 (5=80-100%) | 5 (5=80-100%) | 5 (5=80-100%) | 1 (1=0-19%) | 2 (2=20-39%) | 5 (5=80-100%) | 5 (5=80-100%) | 5 (5=80-100%) | 5 (5=80-100%) | 5 (5=80-100%) | 2 (2=20-39%) | 5 (5=80-100%) |
| Cc1nn(C)c(=O)c(-c2c(F)ccc(Cl)c2CCc2ccc(S(=O)(=O)N(C)C)cc2)c1O [Compound A-1.025] | 5 (5=80-100%) | 5 (5=80-100%) | 1 (1=0-19%) | 5 (5=80-100%) | 5 (5=80-100%) | 4 (4=60-79%) | 5 (5=80-100%) | 5 (5=80-100%) | 5 (5=80-100%) | 5 (5=80-100%) | 5 (5=80-100%) | 5 (5=80-100%) |
| Cc1nc(-c2ccc(CCc3c(Cl)ccc(F)c3-c3c(O)c(C)nn(C)c3=O)cc2)cs1 [Compound A-1.383] | 5 (5=80-100%) | 5 (5=80-100%) | 5 (5=80-100%) | 4 (4=60-79%) | 4 (4=60-79%) | 3 (3=40-59%) | 5 (5=80-100%) | 5 (5=80-100%) | 5 (5=80-100%) | 5 (5=80-100%) | 5 (5=80-100%) | 5 (5=80-100%) |
